Assay results reported in patent US12384771B2, “Pleuromutilin derivative containing thiazole-pyridine benzyl quaternary ammonium salt side chain and preparation method and use thereof” (SHAANXI UNIVERSITY OF SCIENCE AND TECHNOLOGY, priority 2022, dated 2025).
Where a name gives a salt, the structure may show the parent alone. Read-outs that look alike come from different tables or passages of the source.

Experiments:
Assay in all cases: MIC, microbroth dilution, standard strains
Assay type in all cases: cell-based
[1] = test system: Acinetobacter baumannii ATCC 19606
Experimental: (§1) The minimum inhibitory concentration (MIC) of the pleuromutilin derivative containing thiazole-pyridine benzyl quaternary ammonium salt side chain was tested with moxifloxacin as a positive control (purchased from Shanghai Macklin Biochemical Technology Co., Ltd.) using a microbroth dilution method.
(§2) Standard strains include gram-positive bacteria: Staphylococcus epidermidis ATCC 12228, Staphylococcus aureus ATCC 29213, ATCC 25923 and methicillin-resistant Staphylococcus aureus ATCC 33591; gram-negative bacteria: Salmonella ATCC 14028, Acinetobacter baumannii ATCC 19606, Escherichia coli ATCC 25922 and CMCC 44103, all the strains were purchased from the American Type Culture Collection.

[2] = test system: Escherichia coli CMCC 44103
Experimental: as §1, §2

[3] = test system: methicillin-resistant Staphylococcus aureus ATCC 33591
Experimental: as §1, §2

[4] = test system: Staphylococcus epidermidis ATCC 12228
Experimental: as §1, §2

[5] = test system: Staphylococcus aureus ATCC 29213
Experimental: as §1, §2

[6] = test system: Staphylococcus aureus ATCC 25923
Experimental: as §1, §2

Salmonella ATCC 14028 = test system: Salmonella ATCC 14028
Experimental: as §1, §2

[7] = test system: Escherichia coli ATCC 25922
Experimental: as §1, §2

[8] = ATCC19606, read-out: Minimum inhibitory concentration
[9] = CMCC44103, read-out: Minimum inhibitory concentration
[10] = ATCC33591, read-out: Minimum inhibitory concentration
[11] = ATCC12228, read-out: Minimum inhibitory concentration
[12] = ATCC29213, read-out: Minimum inhibitory concentration
[13] = ATCC25923, read-out: Minimum inhibitory concentration
[14] = ATCC19606, ATCC 19606, read-out: Minimum inhibitory concentration
[15] = ATCC14028, ATCC 14028, read-out: Minimum inhibitory concentration
[16] = CMCC44103, CMCC 44103, read-out: Minimum inhibitory concentration
[17] = ATCC33591, ATCC 33591, read-out: Minimum inhibitory concentration
[18] = ATCC12228, ATCC 12228, read-out: Minimum inhibitory concentration
[19] = ATCC29213, ATCC 29213, read-out: Minimum inhibitory concentration
[20] = ATCC25923, ATCC 25923, read-out: Minimum inhibitory concentration
[21] = ATCC25922, ATCC 25922, read-out: Minimum inhibitory concentration

Row | MIC [1, 14] [µg/mL] | MIC (Salmonella ATCC 14028; [15]) [µg/mL] | MIC [2, 16] [µg/mL] | MIC [3, 17] [µg/mL] | MIC [4, 18] [µg/mL] | MIC [5, 19] [µg/mL] | MIC [6, 20] [µg/mL] | MIC [7, 21] [µg/mL] | SMILES | MIC [1, 8] [µg/mL] | MIC [2, 9] [µg/mL] | MIC [3, 10] [µg/mL] | MIC [4, 11] [µg/mL] | MIC [5, 12] [µg/mL] | MIC [6, 13] [µg/mL] | MIC (Salmonella ATCC 14028; ATCC14028, read-out: Minimum inhibitory concentration) [µg/mL] | MIC ([7]; ATCC25922, read-out: Minimum inhibitory concentration) [µg/mL]
1 | – | – | – | – | – | – | – | – | C=C[C@]1(C)C[C@@H](OC(=O)CSc2nc(-c3cc[n+](Cc4ccccc4)cc3)cs2)[C@]2(C)[C@H](C)CC[C@]3(CCC(=O)[C@H]32)[C@@H](C)[C@@H]1O [Compound 1, 1-Benzyl-4-(2-(((8-hydroxy-4,7,9,12-tetramethyl-3-oxy-7-vinyldecahydro-4,9a-propanecyclopenta[8]cyclen-5-yl)oxy)-2-oxoethyl)thiothiazol-4-yl)pyridyl bromide salt] | 4 | 0.25 | 1 | 2 | 0.125 | 0.5 | – | –
2 | 2 | 2 | 2 | 2 | 1 | 0.25 | 1 | 1 | C=C[C@]1(C)C[C@@H](OC(=O)CSc2nc(-c3cc[n+](Cc4ccc(C(F)(F)F)cc4)cc3)cs2)[C@]2(C)[C@H](C)CC[C@]3(CCC(=O)[C@H]32)[C@@H](C)[C@@H]1O [Compound 3, 1-(4-(trifluoromethyl)benzyl)-4-(2-(8-hydroxy-4,7,9,12-tetramethyl-3-oxo-7-vinyldecahydro-4,9a-propancyclopent[8]cyclen-5-yl)oxy)-2-oxoethyl)thiazol-4-yl)pyridyl bromide salt] | – | – | – | – | – | – | – | –
3 | 8 | 4 | 32 | 2 | 2 | 2 | 32 | 2 | C=C[C@]1(C)C[C@@H](OC(=O)CSc2nc(-c3cc[n+](Cc4ccc(OC(F)(F)F)cc4)cc3)cs2)[C@]2(C)[C@H](C)CC[C@]3(CCC(=O)[C@H]32)[C@@H](C)[C@@H]1O [Compound 5, 1-(4-(trifluoromethoxy)benzyl)-4-(2-(8-hydroxy-4,7,9,12-tetramethyl-3-oxo-7-vinyldecahydro-4,9a-propancyclopent[8]cyclen-5-yl)oxy)-2-oxoethyl)thiazol-4-yl)pyridyl bromide salt] | – | – | – | – | – | – | – | –
4 | 2 | 2 | 2 | 1 | 2 | 0.25 | 0.5 | 2 | C=C[C@]1(C)C[C@@H](OC(=O)CSc2nc(-c3cc[n+](Cc4ccc(C(C)(C)C)cc4)cc3)cs2)[C@]2(C)[C@H](C)CC[C@]3(CCC(=O)[C@H]32)[C@@H](C)[C@@H]1O [Compound 6, 1-(4-(tert-butyl)benzyl)-4-(2-(8-hydroxy-4,7,9,12-tetramethyl-3-oxo-7-vinyldecahydro-4,9a-propancyclopent[8]cyclen-5-yl)oxy)-2-oxoethyl)thiazol-4-yl)pyridyl bromide salt] | – | – | – | – | – | – | – | –
5 | – | – | – | – | – | – | – | – | C=C[C@]1(C)C[C@@H](OC(=O)CSc2nc(-c3cc[n+](Cc4ccc(C#N)cc4)cc3)cs2)[C@]2(C)[C@H](C)CC[C@]3(CCC(=O)[C@H]32)[C@@H](C)[C@@H]1O [Compound 8, 1-(4-(cyano)benzyl)-4-(2-(8-hydroxy-4,7,9,12-tetramethyl-3-oxo-7-vinyldecahydro-4,9a-propancyclopent[8]cyclen-5-yl)oxy)-2-oxoethyl)thiazol-4-yl)pyridyl bromide salt] | 32 | 8 | 64 | 8 | 0.125 | 1 | 32 | 2
6 | 16 | 1 | 1 | 2 | 2 | 1 | 1 | 2 | C=C[C@]1(C)C[C@@H](OC(=O)CSc2nc(-c3cc[n+](Cc4ccc(F)cc4)cc3)cs2)[C@]2(C)[C@H](C)CC[C@]3(CCC(=O)[C@H]32)[C@@H](C)[C@@H]1O [Compound 9, 1-(4-fluorobenzyl)-4-(2-(8-hydroxy-4,7,9,12-tetramethyl-3-oxo-7-vinyldecahydro-4,9a-propancyclopent[8]cyclen-5-yl)oxy)-2-oxoethyl)thiazol-4-yl)pyridyl bromide salt] | – | – | – | – | – | – | – | –
7 | 2 | 2 | 1 | 2 | 2 | 0.125 | 2 | 0.5 | C=C[C@]1(C)C[C@@H](OC(=O)CSc2nc(-c3cc[n+](Cc4ccc(Cl)cc4)cc3)cs2)[C@]2(C)[C@H](C)CC[C@]3(CCC(=O)[C@H]32)[C@@H](C)[C@@H]1O [Compound 10, 1-(4-chlorobenzyl)-4-(2-(8-hydroxy-4,7,9,12-tetramethyl-3-oxo-7-vinyldecahydro-4,9a-propancyclopent[8]cyclen-5-yl)oxy)-2-oxoethyl)thiazol-4-yl)pyridyl bromide salt] | – | – | – | – | – | – | – | –
8 | 2 | 4 | 0.5 | 2 | 2 | 0.5 | 1 | 2 | C=C[C@]1(C)C[C@@H](OC(=O)CSc2nc(-c3cc[n+](Cc4ccc(Br)cc4)cc3)cs2)[C@]2(C)[C@H](C)CC[C@]3(CCC(=O)[C@H]32)[C@@H](C)[C@@H]1O [Compound 11, 1-(4-bromobenzyl)-4-(2-(8-hydroxy-4,7,9,12-tetramethyl-3-oxo-7-vinyldecahydro-4,9a-propancyclopent[8]cyclen-5-yl)oxy)-2-oxoethyl)thiazol-4-yl)pyridyl bromide salt] | – | – | – | – | – | – | – | –
9 | 2 | 2 | 1 | 2 | 2 | 0.5 | 1 | 1 | C=C[C@]1(C)C[C@@H](OC(=O)CSc2nc(-c3cc[n+](Cc4ccc(-c5ccccc5)cc4)cc3)cs2)[C@]2(C)[C@H](C)CC[C@]3(CCC(=O)[C@H]32)[C@@H](C)[C@@H]1O [Compound 12, 1-([1,1′-biphenyl]-4-ylmethyl)-4-(2-(8-hydroxy-4,7,9,12-tetramethyl-3-oxo-7-vinyldecahydro-4,9a-propancyclopent[8]cyclen-5-yl)oxy)-2-oxoethyl)thiazol-4-yl)pyridyl bromide salt] | – | – | – | – | – | – | – | –
10 | 8 | 16 | 32 | 64 | 128 | 128 | 64 | 32 | C=C[C@]1(C)C[C@@H](OC(=O)CSc2nc(-c3cc[n+](Cc4cc(C)cc(C)c4)cc3)cs2)[C@]2(C)[C@H](C)CC[C@]3(CCC(=O)[C@H]32)[C@@H](C)[C@@H]1O [Compound 13, 1-(3,5-dimethylbenzyl)-4-(2-(8-hydroxy-4,7,9,12-tetramethyl-3-oxo-7-vinyldecahydro-4,9a-propancyclopent[8]cyclen-5-yl)oxy)-2-oxoethyl)thiazol-4-yl)pyridyl bromide salt] | – | – | – | – | – | – | – | –
11 | 8 | 16 | 8 | 64 | 64 | 128 | 64 | 32 | C=C[C@]1(C)C[C@@H](OC(=O)CSc2nc(-c3cc[n+](Cc4cc(OC)cc(OC)c4)cc3)cs2)[C@]2(C)[C@H](C)CC[C@]3(CCC(=O)[C@H]32)[C@@H](C)[C@@H]1O [Compound 14, 1-(3,5-dimethoxybenzyl)-4-(2-(8-hydroxy-4,7,9,12-tetramethyl-3-oxo-7-vinyldecahydro-4,9a-propancyclopent[8]cyclen-5-yl)oxy)-2-oxoethyl)thiazol-4-yl)pyridyl bromide salt] | – | – | – | – | – | – | – | –
